Assay results taken from PubChem BioAssay AID743088 (The Scripps Research Institute Molecular Screening Center, 2013).
The source made the active and inactive calls.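 The calls were made as follows: active = binding inhibited by at least 50%, or stimulated by at least 50%, shown as inhibition of -50% or lower; inactive = the rest.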

Experiments:
Test in all cases: radioligand displacement at 30 receptors – biochemical, Panlabs HitProfilingScreen, selectivity assay for AVPR1a antagonist project, profiling panel (AID 743088)
[1] = tested on: Nicotinic Acetylcholine; details: 30 targets, at 10 µM, active compounds read high
[2] = tested on: Transporter Norepinephrine (NET); details: 30 targets, at 10 µM, active compounds read high
[3] = tested on: Adenosine A1; details: 30 targets, at 10 µM, active compounds read high
[4] = biological target: Muscarinic acetylcholine receptor M2 (Homo sapiens) (UniProt P08172); details: 30 targets, at 10 µM, active compounds read high
[5] = biological target: D(1A) dopamine receptor (Homo sapiens) (UniProt P21728); details: 30 targets, Dopamine D1, at 10 µM, active compounds read high
[6] = tested on: Adrenergic alpha1B; details: 30 targets, at 10 µM, active compounds read high
[7] = tested on: Alpha-2A adrenergic receptor (Homo sapiens) + Histamine H1 receptor (Homo sapiens) + Mu-type opioid receptor (Homo sapiens); details: 30 targets, at 10 µM, active compounds read high
[8] = tested on: Glutamate NMDA; details: 30 targets, Phencyclidine site, at 10 µM, active compounds read high
[9] = tested on: Adenosine A2A; details: 30 targets, at 10 µM, active compounds read high
[10] = tested on: Histamine H1; details: 30 targets, at 10 µM, active compounds read high
[11] = biological target: Muscarinic acetylcholine receptor M3 (Homo sapiens) (UniProt P20309); details: 30 targets, at 10 µM, active compounds read high
[12] = biological target: 5-hydroxytryptamine receptor 2B (Homo sapiens) (UniProt P41595); details: 30 targets, Serotonin (5-Hydroxytryptamine) 5-HT2B, at 10 µM, active compounds read high
[13] = tested on: Opiate mu (OP3, MOP); details: 30 targets, at 10 µM, active compounds read high
[14] = tested on: Prostanoid EP4; details: 30 targets, at 10 µM, active compounds read high
[15] = tested on: Adrenergic alpha1A; details: 30 targets, at 10 µM, active compounds read high
[16] = biological target: Alpha-2A adrenergic receptor (Homo sapiens) (UniProt P08913); details: 30 targets, Adrenergic alpha2A, at 10 µM, active compounds read high
[17] = tested on: GABAA Central; details: 30 targets, at 10 µM, active compounds read high
[18] = tested on: Dopamine D2; details: 30 targets, at 10 µM, active compounds read high
[19] = tested on: Calcium Channel L-Type; details: 30 targets, Dihydropyridine site, at 10 µM, active compounds read high
[20] = tested on: Sodium Channel Site 2; details: 30 targets, at 10 µM, active compounds read high
[21] = tested on: Cannabinoid CB1; details: 30 targets, at 10 µM, active compounds read high
[22] = tested on: Sigma 1; details: 30 targets, at 10 µM, active compounds read high
[23] = tested on: Adrenergic beta1; details: 30 targets, at 10 µM, active compounds read high
[24] = biological target: Beta-2 adrenergic receptor (Homo sapiens) (UniProt P07550); details: 30 targets, Adrenergic beta2, at 10 µM, active compounds read high
[25] = biological target: Voltage-gated inwardly rectifying potassium channel KCNH2 (Homo sapiens) (UniProt Q12809); details: 30 targets, Potassium Channel hERG, at 10 µM, active compounds read high
Chain of Voltage-gated inwardly rectifying potassium channel KCNH2 (Homo sapiens) (Q12809 whole entry, looked up): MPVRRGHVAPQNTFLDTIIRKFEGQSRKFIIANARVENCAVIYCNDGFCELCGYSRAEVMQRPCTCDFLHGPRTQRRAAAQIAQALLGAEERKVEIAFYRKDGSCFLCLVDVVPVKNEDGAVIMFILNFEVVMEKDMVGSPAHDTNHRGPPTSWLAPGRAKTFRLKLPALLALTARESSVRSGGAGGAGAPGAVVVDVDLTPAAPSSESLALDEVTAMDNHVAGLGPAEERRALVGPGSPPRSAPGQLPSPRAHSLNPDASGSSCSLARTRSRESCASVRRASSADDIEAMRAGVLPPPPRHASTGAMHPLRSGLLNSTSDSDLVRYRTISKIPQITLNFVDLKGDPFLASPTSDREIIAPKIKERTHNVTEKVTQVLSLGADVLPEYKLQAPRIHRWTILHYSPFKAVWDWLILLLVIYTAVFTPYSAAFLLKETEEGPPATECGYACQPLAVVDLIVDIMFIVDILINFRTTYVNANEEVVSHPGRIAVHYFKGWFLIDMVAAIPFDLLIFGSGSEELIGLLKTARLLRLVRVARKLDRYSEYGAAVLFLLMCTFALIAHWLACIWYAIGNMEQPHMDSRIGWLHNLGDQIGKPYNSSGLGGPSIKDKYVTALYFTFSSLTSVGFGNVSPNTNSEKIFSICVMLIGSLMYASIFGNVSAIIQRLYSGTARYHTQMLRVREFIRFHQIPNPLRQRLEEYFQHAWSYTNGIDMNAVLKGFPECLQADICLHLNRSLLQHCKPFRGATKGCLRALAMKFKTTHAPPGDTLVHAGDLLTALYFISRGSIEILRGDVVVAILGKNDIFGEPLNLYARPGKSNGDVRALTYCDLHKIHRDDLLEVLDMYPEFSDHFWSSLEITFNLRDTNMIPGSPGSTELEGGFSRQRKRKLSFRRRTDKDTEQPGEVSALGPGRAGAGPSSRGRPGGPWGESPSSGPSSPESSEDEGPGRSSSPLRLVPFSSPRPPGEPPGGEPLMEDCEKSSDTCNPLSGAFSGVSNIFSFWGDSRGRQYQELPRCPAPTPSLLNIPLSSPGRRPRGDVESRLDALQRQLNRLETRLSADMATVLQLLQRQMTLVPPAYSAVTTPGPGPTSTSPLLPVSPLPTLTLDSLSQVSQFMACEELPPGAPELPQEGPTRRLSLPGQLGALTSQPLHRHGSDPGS

Chain of Alpha-2A adrenergic receptor (Homo sapiens) (P08913 whole entry, looked up): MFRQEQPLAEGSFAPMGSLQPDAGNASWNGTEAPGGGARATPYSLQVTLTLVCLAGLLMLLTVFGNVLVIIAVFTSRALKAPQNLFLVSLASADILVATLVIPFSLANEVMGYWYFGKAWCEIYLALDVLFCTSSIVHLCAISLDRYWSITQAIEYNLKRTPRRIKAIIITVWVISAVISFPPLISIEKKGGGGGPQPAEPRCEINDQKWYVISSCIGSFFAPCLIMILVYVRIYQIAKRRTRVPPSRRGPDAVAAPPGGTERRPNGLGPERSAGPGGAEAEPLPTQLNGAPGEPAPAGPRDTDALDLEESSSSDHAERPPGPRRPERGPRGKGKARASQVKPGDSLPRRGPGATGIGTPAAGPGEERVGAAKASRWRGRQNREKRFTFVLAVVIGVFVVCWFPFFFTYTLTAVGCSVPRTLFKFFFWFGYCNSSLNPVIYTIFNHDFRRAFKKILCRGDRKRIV
Chain of Beta-2 adrenergic receptor (Homo sapiens) (P07550 whole entry, looked up): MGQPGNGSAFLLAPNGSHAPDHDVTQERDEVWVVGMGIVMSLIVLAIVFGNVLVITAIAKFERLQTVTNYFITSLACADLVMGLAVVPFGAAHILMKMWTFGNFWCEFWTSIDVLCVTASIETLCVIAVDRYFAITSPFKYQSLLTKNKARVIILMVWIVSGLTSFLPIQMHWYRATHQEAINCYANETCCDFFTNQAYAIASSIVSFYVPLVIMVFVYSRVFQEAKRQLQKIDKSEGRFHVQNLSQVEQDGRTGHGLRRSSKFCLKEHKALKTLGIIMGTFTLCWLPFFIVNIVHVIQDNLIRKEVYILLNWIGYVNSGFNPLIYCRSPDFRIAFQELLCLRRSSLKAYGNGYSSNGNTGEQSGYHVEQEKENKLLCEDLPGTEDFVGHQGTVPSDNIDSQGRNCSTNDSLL
Chain of 5-hydroxytryptamine receptor 2B (Homo sapiens) (P41595 whole entry, looked up): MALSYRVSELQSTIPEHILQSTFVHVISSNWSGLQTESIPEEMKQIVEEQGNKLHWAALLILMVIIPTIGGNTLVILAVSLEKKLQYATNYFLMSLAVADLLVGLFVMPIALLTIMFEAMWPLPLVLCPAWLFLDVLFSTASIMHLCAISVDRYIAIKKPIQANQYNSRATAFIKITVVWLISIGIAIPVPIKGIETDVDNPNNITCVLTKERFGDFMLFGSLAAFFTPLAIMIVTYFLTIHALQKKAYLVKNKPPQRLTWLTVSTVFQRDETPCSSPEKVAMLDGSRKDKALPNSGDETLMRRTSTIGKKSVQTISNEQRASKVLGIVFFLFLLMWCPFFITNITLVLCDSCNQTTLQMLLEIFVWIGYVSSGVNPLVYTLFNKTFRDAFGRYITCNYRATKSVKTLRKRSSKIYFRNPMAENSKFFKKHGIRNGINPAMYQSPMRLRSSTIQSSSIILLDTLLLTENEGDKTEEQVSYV
Chain of Muscarinic acetylcholine receptor M3 (Homo sapiens) (P20309 whole entry, looked up): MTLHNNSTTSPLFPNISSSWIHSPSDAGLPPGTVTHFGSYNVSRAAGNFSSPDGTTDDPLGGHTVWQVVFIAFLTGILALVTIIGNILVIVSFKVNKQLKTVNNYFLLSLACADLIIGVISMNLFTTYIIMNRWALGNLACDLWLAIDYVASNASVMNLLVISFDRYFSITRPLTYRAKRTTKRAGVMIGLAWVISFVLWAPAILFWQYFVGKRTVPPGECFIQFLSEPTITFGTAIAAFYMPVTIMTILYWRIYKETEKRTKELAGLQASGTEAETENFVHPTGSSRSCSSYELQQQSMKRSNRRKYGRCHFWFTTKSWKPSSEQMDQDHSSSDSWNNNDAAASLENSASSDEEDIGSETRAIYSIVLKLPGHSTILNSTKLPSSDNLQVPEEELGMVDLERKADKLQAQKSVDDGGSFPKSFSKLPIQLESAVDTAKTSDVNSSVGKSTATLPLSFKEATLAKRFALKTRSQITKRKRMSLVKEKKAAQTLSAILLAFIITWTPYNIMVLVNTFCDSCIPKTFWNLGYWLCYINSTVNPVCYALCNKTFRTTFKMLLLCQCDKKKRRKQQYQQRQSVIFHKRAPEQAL
Chain of Muscarinic acetylcholine receptor M2 (Homo sapiens) (P08172 whole entry, looked up): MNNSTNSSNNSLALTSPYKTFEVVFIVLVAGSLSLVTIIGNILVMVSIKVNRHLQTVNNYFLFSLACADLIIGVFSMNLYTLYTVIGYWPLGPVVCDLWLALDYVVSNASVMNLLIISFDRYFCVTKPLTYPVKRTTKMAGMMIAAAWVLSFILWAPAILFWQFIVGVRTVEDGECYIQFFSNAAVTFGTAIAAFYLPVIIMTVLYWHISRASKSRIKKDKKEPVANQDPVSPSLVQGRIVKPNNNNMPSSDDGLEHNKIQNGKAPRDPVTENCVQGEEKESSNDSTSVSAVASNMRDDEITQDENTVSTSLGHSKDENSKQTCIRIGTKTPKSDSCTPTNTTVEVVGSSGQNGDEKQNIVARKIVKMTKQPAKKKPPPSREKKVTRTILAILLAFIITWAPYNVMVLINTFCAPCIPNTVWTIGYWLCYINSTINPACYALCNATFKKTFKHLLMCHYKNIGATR
Chain of D(1A) dopamine receptor (Homo sapiens) (P21728 whole entry, looked up): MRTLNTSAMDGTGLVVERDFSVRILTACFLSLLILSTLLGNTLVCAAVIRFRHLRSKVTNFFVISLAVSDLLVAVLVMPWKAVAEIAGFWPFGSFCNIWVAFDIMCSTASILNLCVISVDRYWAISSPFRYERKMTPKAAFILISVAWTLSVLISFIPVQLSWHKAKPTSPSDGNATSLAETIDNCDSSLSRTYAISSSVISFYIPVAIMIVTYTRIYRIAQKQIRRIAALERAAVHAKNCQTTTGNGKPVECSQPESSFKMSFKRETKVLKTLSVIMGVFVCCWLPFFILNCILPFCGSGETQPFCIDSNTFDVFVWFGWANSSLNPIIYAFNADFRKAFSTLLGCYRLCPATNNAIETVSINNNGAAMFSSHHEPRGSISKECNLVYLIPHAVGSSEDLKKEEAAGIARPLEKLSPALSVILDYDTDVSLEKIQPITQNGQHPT

O=C(C1CCN(c2ccc(Cl)cn2)CC1)N(CC1CC1)c1ccc(Cl)cc1
inhibition of binding [1]: -15% (inactive)
inhibition of binding [2]: 47% (inactive)
inhibition of binding [3]: -4% (inactive)
inhibition of binding [4]: -5% (inactive)
inhibition of binding [5]: -6% (inactive)
inhibition of binding [6]: -15% (inactive)
inhibition of binding [7]: 6% (inactive)
inhibition of binding [8]: 5% (inactive)
inhibition of binding [9]: 7% (inactive)
inhibition of binding [10]: 12% (inactive)
inhibition of binding [11]: -2% (inactive)
inhibition of binding [12]: 36% (inactive)
inhibition of binding [13]: 23% (inactive)
inhibition of binding [14]: 31% (inactive)
inhibition of binding [15]: 23% (inactive)
inhibition of binding [16]: 8% (inactive)
inhibition of binding ([17]; Flunitrazepam site): -6% (inactive)
inhibition of binding ([17]; Muscimol site): 7% (inactive)
inhibition of binding [18]: 1% (inactive)
inhibition of binding [19]: 44% (inactive)
inhibition of binding [20]: 35% (inactive)
inhibition of binding [21]: 48% (inactive)
inhibition of binding [22]: 61%
inhibition of binding [23]: 12% (inactive)
inhibition of binding [24]: 5% (inactive)
inhibition of binding [25]: 22% (inactive)
